Measured values published in ChEMBL document CHEMBL1150703, “Plants as sources of antimalarial drugs, Part 4: Activity of Brucea javanica fruits against chloroquine-resistant Plasmodium falciparum in vitro and against Plasmodium berghei in vivo” (J Nat Prod, 1987).
Converted amounts (≈) assume the structure as drawn.

What was measured:
Plasmodium falciparum [1] = assay: Antimalarial activity against multidrug-resistant Plasmodium falciparum K1 infected human erythrocytes assessed by [3H]hypoxanthine uptake; assay type: functional, organism-based
Plasmodium berghei [2] = assay: Antimalarial activity as reduced parasitaemia at day 4 against Plasmodium berghei N infected TSW mice (Mus musculus) at 9 mg/kg perorally dosed 3 hrs post infection then daily; assay type: functional; settings: route oral
Plasmodium berghei [3] = assay: Antimalarial activity as reduced parasitaemia at day 4 against Plasmodium berghei N infected TSW mice (Mus musculus) perorally dosed 3 hrs post infection then daily; assay type: functional; settings: po
Plasmodium berghei [4] = assay: Antimalarial activity as reduced parasitaemia at day 4 against Plasmodium berghei N infected TSW mice (Mus musculus) at 3 mg/kg peroral dose 3 hrs post infection then daily; assay type: functional; settings: route oral
[5] = (§1) Toxicity in Plasmodium berghei N-infected TSW mice (Mus musculus) assessed as mortality before day 5 at 9 mg/kg, perorally administered 3 hrs after infection daily for 4 consecutive days; assay type: organism-based; design: dose 9 mg/kg, route oral; settings: TSW, in vivo, po, read-out: Activity
Mus musculus [6] = assay: as §1; assay type: organism-based; design: dose 9 mg/kg, route oral; settings: in vivo, po, 3 h
Mus musculus [7] = assay: Toxicity in Plasmodium berghei N-infected TSW mice (Mus musculus) assessed as toxic deaths before day 5 at 3 mg/kg, perorally administered 3 hrs after infection daily for 4 consecutive days; assay type: organism-based; design: dose 3 mg/kg, route oral; settings: in vivo, po
Plasmodium falciparum [8] = assay: Antimalarial activity against multidrug-resistant Plasmodium falciparum K1 in human erythrocytes as inhibition of [3H]hypoxanthine uptake; assay type: functional, organism-based

Row | SMILES | IC50 (Plasmodium falciparum [1]) | ED50 (Plasmodium berghei [3]) | ED90 (Plasmodium berghei [3]) | inhibition in vivo at 3 mg/kg (Plasmodium berghei [4]) | also measured
1 | COC(=O)[C@]12OC[C@]34[C@H]([C@@H](O)[C@@H]1O)[C@@]1(C)CC(=O)C(O)=C(C)[C@@H]1C[C@H]3OC(=O)[C@H](OC(=O)/C=C(\C)C(C)(C)OC(C)=O)[C@@H]24 [BRUCEANTINOL] | 0.002 µg/mL (≈ 0.0033 µM) | – | – | – | –
2 | COC(=O)[C@@]12OC[C@]34[C@H]([C@@H](O)[C@@H]1O)[C@@]1(C)CC(=O)C(O)=C(C)[C@@H]1C[C@H]3OC(=O)[C@H](OC(=O)/C=C(\C)C(C)C)[C@@H]24 [BRUCEANTIN] | 0.0008 µg/mL (≈ 0.00146 µM) | – | – | – | –
3 | COC(=O)[C@@]12OC[C@]34[C@H]([C@@H](O)[C@@H]1O)[C@@]1(C)CC(=O)C(O)=C(C)[C@@H]1C[C@H]3OC(=O)[C@H](OC(=O)CC(C)C)[C@@H]24 [BRUCEINE A] | 0.011 µg/mL (≈ 0.0211 µM) | 3.36 mg/kg/day | 26.7 mg/kg/day | – | inhibition in vivo at 9 mg/kg (Plasmodium berghei [2]): 72%
4 | COC(=O)[C@@]12OC[C@]34[C@H]([C@@H](O)[C@@H]1O)[C@@]1(C)CC(=O)C(O)=C(C)[C@@H]1C[C@H]3OC(=O)[C@H](OC(C)=O)[C@@H]24 [BRUCEINE B] | 0.011 µg/mL (≈ 0.0229 µM) | 0.9 mg/kg/day | 2.82 mg/kg/day | 95% | mortality at 3 h [5]: 100%
5 | COC(=O)[C@]12OC[C@]34[C@H]([C@@H](O)[C@@H]1O)[C@@]1(C)CC(=O)C(O)=C(C)[C@@H]1C[C@H]3OC(=O)[C@H](OC(=O)/C=C(\C)C(C)(C)O)[C@@H]24 [BRUCEINE C] | 0.005 µg/mL (≈ 0.00886 µM) | – | – | 40% | Activity (Mus musculus [6]): Toxic
6 | CC1=CC(=O)[C@@H](O)[C@]2(C)[C@H]3[C@@H](O)[C@H](O)[C@]4(C)OC[C@@]35[C@@H](C[C@@H]12)OC(=O)[C@H](O)[C@]54O [BRUCEINE D] | 0.015 µg/mL (≈ 0.0365 µM) | 2.79 mg/kg/day | 8.19 mg/kg/day | 50% | Activity (Mus musculus [7]): Non-toxic
7 | COC(=O)[C@]12OC[C@]34[C@H]([C@@H](O)[C@@H]1O)[C@@]1(C)CC(=O)C(O)=C(C)[C@@H]1C[C@H]3OC(=O)[C@H](OC(=O)C=C(C)C)[C@@H]24 [BRUSATOL] | 0.003 µg/mL (≈ 0.00576 µM) | 1.27 mg/kg/day | 3.03 mg/kg/day | 98% | –
8 | COC(=O)[C@]12OC[C@@]34[C@@H](CC5=C(C)C(=O)C(O)=C[C@]5(C)[C@H]3[C@@H](O)[C@@H]1O)OC(=O)[C@H](OC(=O)CC(C)C)[C@@H]24 [DEHYDROBRUCEINE A] | 0.046 µg/mL (≈ 0.0884 µM) | – | – | – | –
9 | CC1=CC(=O)[C@@H](O)[C@]2(C)[C@H]3[C@@H](O)[C@H](O)[C@]4(CO)OC[C@@]35[C@@H](C[C@@H]12)OC(=O)[C@H](O)[C@]54O [YADANZIOLIDE A] | 0.031 µg/mL (≈ 0.0727 µM) | – | – | – | –
10 | COC(=O)[C@]12OC[C@]34[C@H]([C@@H](O)[C@@H]1O)[C@@]1(C)C=C(O[C@@H]5O[C@H](CO)[C@@H](O)[C@H](O)[C@H]5O)C(=O)[C@@H](C)[C@@H]1C[C@H]3OC(=O)[C@H](OC(C)=O)[C@@H]24 [YADANZIOSIDE F] | – | – | – | – | IC50 (Plasmodium falciparum [8]): 5 µg/mL (≈ 7.78 µM)
11 | COC(=O)[C@]12OC[C@]34[C@H]([C@@H](O)[C@@H]1O)[C@@]1(C)CC(=O)C(O[C@@H]5O[C@H](CO)[C@@H](O)[C@H](O)[C@H]5O)=C(C)[C@@H]1C[C@H]3OC(=O)[C@H](OC(C)=O)[C@@H]24 [YADANZIOSIDE I] | 22 µg/mL (≈ 34.3 µM) | – | – | – | –
